Measurements reported in the supplement of paper PMC10307832.

Assays:
Assay in all cases: relative viability (nuclei count vs DMSO), 5 days (fraction); higher = more cells survive
[1] = compound: CC1=C(C(=O)N2C=CSC2=N1)CCN3CCC(=C(C4=CC=CC=C4)C5=CC=C(C=C5)F)CC3
Summary of the method: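 Following overnight incubation at 37 °C, lung cancer cell lines in 1536-well plates were pinned with five library-drug doses (not always all listed) in √10 steps on vehicle-anchored plates. The cells then spent 5 days without medium change before a combined fix, permeabilisation and Hoechst stain, 4× imaging and MetaXpress nuclear counts. Viability is the treated-to-vehicle ratio of nuclei, taken as the median across plates. Only plates with control CV below 25% and at least one doubling passed.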

[2] = compound: CC1=C(C(=O)N2C=CSC2=N1)CCN3CCC(=C(C4=CC=CC=C4)C5=CC=C(C=C5)F)CC3 + O=C(c1cc(Cc2n[nH]c(=O)c3ccccc23)ccc1F)N1CCN(C(=O)C2CC2)CC1 [Olaparib] (partner 8 µM)
Summary of the method: (§1)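 Values are medians from duplicate plates. Each reflects relative viability, defined as the nuclei count of treated wells over that of vehicle wells. Lung cancer cell lines in 1536-well plates were pin-tool dosed one day after seeding with one drug alone or with a fixed anchor-drug dose plus five library-drug doses (not always all listed) in √10 steps, then fixed, stained and imaged at 4× after 5 days.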

[3] = compound: CC1=C(C(=O)N2C=CSC2=N1)CCN3CCC(=C(C4=CC=CC=C4)C5=CC=C(C=C5)F)CC3 + N=C(N)NC(=N)NCCc1ccccc1 [Phenformin] (partner 250 µM)
Summary of the method: as §1

[4] = compound: CC1=C(C(=O)N2C=CSC2=N1)CCN3CCC(=C(C4=CC=CC=C4)C5=CC=C(C=C5)F)CC3 + CC(=O)Nc1cccc(-n2c(=O)n(C3CC3)c(=O)c3c(Nc4ccc(I)cc4F)n(C)c(=O)c(C)c32)c1 [Trametinib] (partner 0.02 µM)
Summary of the method: as §1

Cell Line	relative viability ([1]; 0.08 µM)	relative viability ([1]; 0.253 µM)	relative viability ([1]; 0.8 µM)	relative viability ([1]; 2.53 µM)	relative viability ([1]; 8 µM)	relative viability ([2]; first compound 0.08 µM)	relative viability ([2]; first compound 0.253 µM)	relative viability ([2]; first compound 0.8 µM)	relative viability ([2]; first compound 2.53 µM)	relative viability ([2]; first compound 8 µM)	relative viability ([3]; first compound 0.08 µM)	relative viability ([3]; first compound 0.253 µM)	relative viability ([3]; first compound 0.8 µM)	relative viability ([3]; first compound 2.53 µM)	relative viability ([3]; first compound 8 µM)	relative viability ([4]; first compound 0.08 µM)	relative viability ([4]; first compound 0.253 µM)	relative viability ([4]; first compound 0.8 µM)	relative viability ([4]; first compound 2.53 µM)	relative viability ([4]; first compound 8 µM)
NCI-H1299	1.08	1	1	1.01	0.714	1.04	1.01	0.957	0.977	0.803	–	–	–	–	–	–	–	–	–	–
HCC-44	1.07	1.04	0.997	1.15	0.888	1.01	1.08	1.03	1.13	0.643	0.172	0.15	0.148	0.217	0.202	1.13	1.12	1.13	1.01	1.04
IA-LM	0.761	0.928	1.1	0.944	0.497	0.93	0.926	0.848	0.709	0.687	–	–	–	–	–	–	–	–	–	–
NCI-H1915	1.07	1	1.01	1.01	0.732	0.254	0.272	0.284	0.238	0.223	0.376	0.377	0.365	0.363	0.317	0.331	0.326	0.322	0.283	0.261
NCI-H596	1.02	0.964	0.981	0.952	0.852	0.67	0.646	0.677	0.695	0.708	0.702	0.826	0.915	0.74	0.578	0.703	0.815	0.913	0.863	0.708
EPLC-272H	0.832	0.914	0.864	1.03	0.743	0.693	–	0.911	0.758	0.742	0.333	0.328	0.286	0.286	0.391	0.379	0.295	0.305	0.281	0.255
NCI-H23	1.06	1.06	0.857	0.964	0.718	0.287	0.281	0.274	0.276	0.23	0.757	0.668	0.782	0.773	0.564	0.38	0.343	0.387	0.368	0.22
201T	1.04	1.04	0.986	1.04	1.01	0.941	0.791	0.824	0.92	0.884	0.504	0.463	0.433	0.477	0.386	0.7	0.749	0.709	0.75	0.722
NCI-H2085	1	1.07	1.04	0.973	0.82	0.805	0.776	0.807	0.783	0.735	0.769	0.699	0.661	0.762	0.591	0.484	0.52	0.491	0.66	0.452
NCI-H2228	1.02	0.978	1.15	1.1	0.597	0.591	0.701	0.723	0.728	0.347	0.261	0.301	0.376	0.348	0.256	0.481	0.417	0.612	0.506	0.332
BEN	0.886	1	1	1.07	0.856	1.07	1.22	1.09	1.06	0.89	0.255	0.281	0.247	0.316	0.21	0.798	1.13	1.06	1.16	0.944
HCC-366	0.852	1.02	1.06	1.05	0.502	0.331	0.287	0.469	0.464	0.226	0.638	0.65	0.626	0.579	0.472	0.422	0.384	0.377	0.404	0.216
SK-MES-1	1.02	1.01	1.03	1.09	0.692	0.961	0.583	0.725	0.827	0.64	0.608	0.693	0.699	0.73	0.522	0.578	0.523	0.545	0.594	0.474
CAL-12T	1.02	1.08	0.953	1.02	0.723	0.724	0.718	0.79	0.763	0.6	0.55	0.593	0.544	0.605	0.346	0.262	0.281	0.267	0.338	0.3
NCI-H1666	0.936	0.941	0.978	1.06	0.815	0.698	0.756	0.684	0.751	0.764	0.531	0.609	0.581	0.591	0.527	0.76	0.891	0.9	0.985	0.717
NCI-H2087	0.878	1.22	1.13	0.933	0.62	0.564	0.559	0.57	0.756	0.445	0.333	0.434	0.529	0.585	0.323	0.177	0.211	0.256	0.255	0.705
LK-2	0.955	0.902	1.07	0.998	0.658	0.726	0.728	0.736	0.756	0.514	0.417	0.386	0.301	0.297	0.321	0.629	0.723	0.886	0.801	0.477

Cell Line	relative viability ([1]; 0.08 µM)	relative viability ([1]; 0.253 µM)	relative viability ([1]; 0.8 µM)	relative viability ([1]; 2.53 µM)	relative viability ([1]; 8 µM)	relative viability ([2]; first compound 0.08 µM)	relative viability ([2]; first compound 0.253 µM)	relative viability ([2]; first compound 0.8 µM)	relative viability ([2]; first compound 2.53 µM)	relative viability ([2]; first compound 8 µM)	relative viability ([3]; first compound 0.08 µM)	relative viability ([3]; first compound 0.253 µM)	relative viability ([3]; first compound 0.8 µM)	relative viability ([3]; first compound 2.53 µM)	relative viability ([3]; first compound 8 µM)	relative viability ([4]; first compound 0.08 µM)	relative viability ([4]; first compound 0.253 µM)	relative viability ([4]; first compound 0.8 µM)	relative viability ([4]; first compound 2.53 µM)	relative viability ([4]; first compound 8 µM)
UMC-11	0.914	0.952	0.936	1.17	0.713	0.44	–	1.05	0.307	0.342	0.366	0.326	0.321	0.338	0.255	0.461	–	0.701	0.778	0.556
HCC-827	1.02	1.1	1.04	1.05	0.943	0.655	0.626	0.718	0.637	0.667	0.4	0.413	0.444	0.398	0.407	0.483	0.503	0.501	0.62	0.53
LCLC-103H	1.04	1.06	0.957	1.04	0.796	0.876	0.71	0.859	0.735	0.667	0.327	0.331	0.316	0.308	0.289	0.672	0.645	0.68	0.743	0.549
NCI-H1975	0.893	0.961	1	0.992	0.662	0.674	0.714	0.899	0.852	0.433	0.393	0.425	0.397	0.441	0.381	0.349	0.389	0.389	0.35	0.311
NCI-H1944	0.969	0.94	0.96	0.958	0.751	0.422	0.446	0.38	0.383	0.359	0.195	0.207	0.229	0.188	0.182	0.382	0.373	0.436	0.368	0.335
NCI-H441	0.736	1.06	1.15	1.05	0.593	0.5	0.502	0.515	0.642	0.367	0.797	0.759	0.918	0.737	0.667	0.423	0.404	0.445	0.541	0.372
SK-LU-1	0.845	0.955	1.18	1.15	0.648	0.442	0.45	0.459	0.429	0.402	0.672	0.475	0.585	0.576	0.42	0.526	0.424	0.479	0.645	0.402
A-427	0.983	1.08	0.945	1.04	0.939	0.779	0.74	0.723	0.803	0.658	0.291	0.287	0.283	0.301	0.266	0.762	0.686	0.712	0.818	0.681
COR-L23	0.883	1.16	1.22	1.19	0.519	0.311	0.32	0.344	0.376	0.31	0.43	0.449	0.39	0.455	0.375	0.748	0.612	0.5	0.731	0.372
NCI-H838	0.779	0.998	0.987	1.22	0.704	0.747	0.801	0.849	0.925	0.604	0.629	0.533	0.569	0.576	0.464	0.391	0.558	0.565	0.617	0.24
NCI-H322M	0.89	0.91	0.877	1.09	1.08	0.74	0.801	0.678	0.813	0.738	0.745	0.785	0.737	0.773	0.873	0.478	0.424	0.558	0.604	0.469
EKVX	0.818	0.984	1.06	1.09	0.711	0.83	0.868	0.922	0.87	0.729	0.211	0.26	0.236	0.207	0.221	0.354	0.42	0.358	0.314	0.292
NCI-H1648	0.797	0.802	0.802	0.706	0.883	1.14	0.981	1.28	0.787	0.359	–	–	–	–	–	0.437	0.378	0.427	0.465	0.417
ABC-1	1.04	0.858	0.871	0.888	0.592	0.836	–	0.99	1.01	0.536	0.267	0.223	0.212	0.248	0.197	–	–	–	–	–
A549	0.841	1.05	1.01	1.06	0.433	–	0.212	0.385	0.36	0.151	0.101	0.203	0.206	0.112	0.151	–	–	–	–	–
Calu-6	0.906	1.02	1.04	1.03	0.602	0.475	0.602	0.642	0.573	0.462	–	–	–	–	–	–	–	–	–	–
NCI-H1703	1.03	0.821	0.865	1.13	0.624	0.385	0.334	0.427	0.577	0.432	–	–	–	–	–	–	–	–	–	–
